{
  "source": "patent US10440974B2",
  "about": "“Methionine-rich composition for feeding animals” (Evonik Degussa GmbH, priority 2009, dated 2019)",
  "key": {"broiler chickens": {"tested_on": "broiler chickens", "description": "The crude methionine previously obtained in solid form is added to a basic feed for broiler chickens.\nThe basic feed has the following composition:\nThe animals are divided up into groups and fed with the basic feed as control, or with a feed supplemented with crude methionine according to the invention, and then weighed at 1 day, 14 days and 28 days."}, "physchem": {"experiment": "physchem", "text": "The third step consists in crystallizing the methionine so as to recover the crude methionine in solid form. This crystallization step can be carried out by means of technology chosen from the group consisting of crystallization by cooling, crystallization by evaporation-crystallization and adiabatic crystallization. The applicant company recommends using evaporation-crystallization. If evaporation-crystallization is selected, the applicant company recommends pre-concentrating the crude methionine solution by vacuum evaporation using a falling-film evaporator in order to approach supersaturation. The pre-concentrated solution is therefore transferred into a crystallizer of Draft tube type, for example, so as to be further concentrated and crystallized therein. […] Under these conditions, and by virtue of the removal of the soluble impurities, the solid methionine crystallizes in the form of spongy spheres which are easy to separate from the mother liquors."}},
  "data": [
    {"smiles": "CSCCC(N)C(=O)O", "note": "(racemic) [DL-methionine of chemical origin, DL-methionine]", "values": [
      {"measurement": "optimum efficiency, added methionine", "setting": "broiler chickens; added to basic feed", "result": "approximately 0.19%"},
      {"measurement": "optimum efficiency, methionine in the final feed", "setting": "broiler chickens; basic feed has a methionine content of about 0.29%", "result": "approximately 0.48%"}
    ]},
    {"smiles": "CSCC[C@H](N)C(=O)O", "note": "[methionine, L-Methionine]", "values": [
      {"measurement": "solubility", "setting": "physchem; 35 °C", "result": "~70", "unit": "mg/mL"},
      {"measurement": "supersaturation", "setting": "physchem; at 50° C.", "result": 80, "unit": "g/L"}
    ]}
  ]
}
